{"source": "patent US20210267948A1", "about": "“TREATMENT OF CANCER” (CITY OF HOPE, priority 2017, published 2021)", "key": {"[1]": {"tested_on": "PARP1", "experiment": "PARP1 protein expression by Western blot", "format": "cell-based, human", "conditions": "HCC1937 cells irrespective of BRCA1 status, 4 h", "description": "FIGS. 3A-3B. […] (FIG. 3A): the effect of COH29 on PARP1 activity in isogenic pairs of breast (HCC1937) and ovarian (UWB1.289) cancer cell lines expressing mutant or wt BRCA1 (wt=+BRCA1 in each case) was assessed in duplicate using procedures described in Materials & Methods; FIG. 3B: the effect of COH29 on PARP1 protein expression in the isogenic HCC1937/HCC1937+BRCA1 cell lines was assessed by Western blot analysis using anti-human PARP1 antibody as the primary antibody. Loading control is β-actin.\nFor subcellular fractionation, cells were trypsinized and washed with cold PBS solution twice. […] Following centrifugation at 1,000 g for 5 min, the supernatant was collected (i.e., cytoplasmic fraction) and pellets were washed with the same buffer twice. The washed samples were extracted for 40 min on ice with fractionation buffer containing 0.5% NP-40 for nuclear fraction. All the samples were sonicated and clarified by centrifugation at 16,000 g for 15 min. Protein concentrations of all fractions were determined with Bio-Rad Protein Assay (Bio-Rad Laboratories, Hercules, Calif.). Immunoblotting was performed as described previously (21,22). Briefly, equal amounts of boiled protein samples were subjected to SDS-polyacrylamide gel electrophoresis (PAGE) and transferred onto nitrocellulose membranes (Bio-Rad Laboratories). Membranes were blocked for 1 hour in 3% BSA in Tris buffered saline containing 0.05% Tween 20 (TBST) and incubated for 1 hour with primary antibody (1:500 or 1:1000) diluted in TBST containing 1% BSA. After two washes with TBST, membranes were incubated for 1 hour with horseradish peroxidase-conjugated secondary Abs (1:3000 dilution) at room temperature. The immunoblots were visualized on film with the West-Q chemi-luminescence kit (GenDEPOT, Barker, Tex.)."}, "[2]": {"tested_on": "UWB1.289+BRCA1", "experiment": "Cytotoxicity assay, UWB1.289+BRCA1", "format": "cell-based, human", "conditions": "UWB1.289 + BRCA1 (WT), 72 h; read-out: IC50, mean ± SEM", "description": "(§1) The MTT cytotoxicity assay was performed by incubating with MTT and monitoring the MTT formazan formed by viable cells with a microplate reader at a wavelength of 560 nm; the survival ratio was determined using the formula: (Atest−Ablank)/(Acontrol−Ablank)×100%. The cytotoxicity was determined in 96-well plates using the semiautomatic fluorescence-based Digital Imaging Microscopy System (DIMSCAN). DIMSCAN uses digital imaging microscopy to quantify viable cells, which selectively accumulate FDA (fluorescein diacetate; Alfa Aesar, Ward Hill, Mass.). DIMSCAN is capable of measuring cytotoxicity over a 4 log dynamic range by quantifying total fluorescence per well (which is proportional to the number of viable cells) after elimination of the background fluorescence by digital thresholding and eosin Y (Mallinckrodt Baker, Center Valley, Pa.) quenching. Cells were seeded into 96-well plates in 100 μL of complete medium at 2,000 to 5,000 cells per well, depending on cell line growth rate. After overnight incubation, test compound was added to each well at various concentrations in 50 μL of culture medium. […] Total fluorescence per well was then measured using DIMSCAN, and the results were expressed as the ratio of the fluorescence in treated wells to the fluorescence in untreated wells (survival fraction)."}, "[3]": {"tested_on": "OV90", "experiment": "MTT cytotoxicity assay, OV90", "format": "cell-based, human", "conditions": "OV90, wild-type BRCA1, 72 h; read-out: IC50, mean ± SEM", "description": "as §1"}, "[4]": {"tested_on": "HCC1937", "experiment": "Cytotoxicity assay, HCC1937", "format": "cell-based, human", "conditions": "HCC1937, BRCA1 mutant, triple negative, 72 h", "description": "All cell lines were acquired from the American Type Culture Collection (Manassas, Va., USA). Cells were maintained in RPMI 1640 medium (Mediatech) with 10% fetal bovine serum, 2 mM glutamine, and 100 U of penicillin and 100 μg of streptomycin per ml of medium (Sigma) at 37° C. in 5% CO2. To isolate HCC1937+BRCA1 cells, parental HCC1937 cells were transfected with pcDNA3.1 plasmid expressing full-length BRCA1 cDNA. Stable transfectant clones were selected and used for drug sensitivity assays. […] The restoration of BRCA1 expression in the puromycin-resistant cDNA/transfectant cells was evaluated by Western blot analysis.\nThe MTT cytotoxicity assay was performed by incubating with MTT and monitoring the MTT formazan formed by viable cells with a microplate reader at a wavelength of 560 nm; the survival ratio was determined using the formula: (Atest−Ablank)/(Acontrol−Ablank)×100%. The cytotoxicity was determined in 96-well plates using the semiautomatic fluorescence-based Digital Imaging Microscopy System (DIMSCAN). DIMSCAN uses digital imaging microscopy to quantify viable cells, which selectively accumulate FDA (fluorescein diacetate; Alfa Aesar, Ward Hill, Mass.). […] Total fluorescence per well was then measured using DIMSCAN, and the results were expressed as the ratio of the fluorescence in treated wells to the fluorescence in untreated wells (survival fraction)."}, "[5]": {"tested_on": "OVCAR-3", "experiment": "Cytotoxicity assay, OVCAR-3", "format": "cell-based, human", "conditions": "read-out: IC50, mean ± SEM", "description": "as §1"}, "[6]": {"tested_on": "HCC1937+BRCA1", "experiment": "Cytotoxicity assay, HCC1937+BRCA1", "format": "cell-based, human", "conditions": "HCC1937 + BRCA1, triple negative, 72 h", "description": "All cell lines were acquired from the American Type Culture Collection (Manassas, Va., USA). Cells were maintained in RPMI 1640 medium (Mediatech) with 10% fetal bovine serum, 2 mM glutamine, and 100 U of penicillin and 100 μg of streptomycin per ml of medium (Sigma) at 37° C. in 5% CO2. To isolate HCC1937+BRCA1 cells, parental HCC1937 cells were transfected with pcDNA3.1 plasmid expressing full-length BRCA1 cDNA. Stable transfectant clones were selected and used for drug sensitivity assays. For stable transfection, cells at 30-40% confluence were incubated overnight with […] of plasmid DNA, using FUGENE® 6 transfectin reagent (Roche Molecular Biochemical, Monza, Italy) according to the manufacturer's instructions. Cells were then selected in puromycin (1 μg/ml) (Invitrogen Life Technologies, La Jolla, Calif., USA). After 20 to 30 days, viable puromycin-resistant colonies from HCC1937 transfections were expanded and screened. The clones that stably expressed puromycin and retained growth potential were assayed for BRCA1 expression by Western blot analysis. The restoration of BRCA1 expression in the puromycin-resistant cDNA/transfectant cells was evaluated by Western blot analysis.\nThe MTT cytotoxicity assay was performed by incubating with MTT and monitoring the MTT formazan formed by viable cells with a microplate reader at a wavelength of 560 nm; the survival ratio was determined using the formula: (Atest−Ablank)/(Acontrol−Ablank)×100%. The cytotoxicity was determined in 96-well plates using the semiautomatic fluorescence-based Digital Imaging Microscopy System (DIMSCAN). DIMSCAN uses digital imaging microscopy to quantify viable cells, which selectively accumulate FDA (fluorescein diacetate; Alfa Aesar, Ward Hill, Mass.). DIMSCAN is capable of measuring cytotoxicity over a 4 log dynamic range by quantifying total fluorescence per well (which is proportional to the number of viable cells) after elimination of the background fluorescence by digital thresholding and eosin Y (Mallinckrodt Baker, Center Valley, Pa.) quenching. […]"}, "[7]": {"tested_on": "UWB1.289", "experiment": "MTT cytotoxicity assay, UWB1.289", "format": "cell-based, human", "conditions": "UWB1.289, BRCA1-defective, 72 h; read-out: IC50, mean ± SEM", "description": "as §1"}, "[8]": {"tested_on": "SKBR3", "experiment": "Cytotoxicity assay, SKBR3", "format": "cell-based, human", "conditions": "SKBR3, ER− PR(−) HER2+", "description": "as §1"}, "[9]": {"tested_on": "KB-7D", "experiment": "Cytotoxicity assay, KB-7D", "format": "cell-based, human", "conditions": "cisplatin-resistant, read-out: IC50, mean ± SEM", "description": "as §1"}, "[10]": {"tested_on": "OVCAR-4", "experiment": "Cytotoxicity assay, OVCAR-4", "format": "cell-based, human", "conditions": "read-out: IC50, mean ± SEM", "description": "as §1"}, "[11]": {"tested_on": "TOV112D", "experiment": "Cytotoxicity assay, TOV112D", "format": "cell-based, human", "conditions": "read-out: IC50, mean ± SEM", "description": "as §1"}, "[12]": {"tested_on": "KB-Gem", "experiment": "Cytotoxicity assay, KB-Gem", "format": "cell-based, human", "conditions": "gemcitabine-resistant, read-out: IC50, mean ± SEM", "description": "as §1"}, "[13]": {"tested_on": "A2780-DDDP", "experiment": "Cytotoxicity assay, A2780-DDDP", "format": "cell-based, human", "conditions": "cisplatin-resistant, read-out: IC50, mean ± SEM", "description": "as §1"}, "[14]": {"tested_on": "wild-type zebrafish embryos", "experiment": "Zebrafish genotoxicity assay", "format": "in vivo, Danio rerio", "conditions": "HU 0-50 mM", "description": "The PARP1 activity was determined using the PARP1 Chemiluminescent Assay Kit (BPS Bioscience, San Diego) according to the manufacturer's protocol. Briefly, the ribosylation reaction was carried out with activated DNA in PARP assay buffer using test inhibitor, positive control, substrate control and blank reactions, for 1 hour at 25° C. Detection was by streptavidin-HRP with chemiluminescent substrate A and B read in a luminometer. NZebrafish (Danio rerio) were obtained from zebrafish Core facility of Taipei Medical University and maintained at 28° C. on a 14 h light/10 h dark cycle. Embryos were incubated at 28° C. and different developmental stages were determined as described (25). Wild-type embryos were treated with different concentrations of HU (0, 5, 10, 20, 50 mM) or COH29 (0, 10, 20, 50, 100 μM) at 20 hpf to evaluate the mutagenic effect. Fifteen embryos were treated per well condition. […] Embryos were observed using an Olympus IX70-FLA inverted fluorescence microscope. Images were taken using SPOT digital camera system (Diagnostic Instruments, Sterling Heights, Mich., USA) and assembled with Image) software (26).\nTo assess the genotoxicity of COH29, wild-type zebrafish embryos were treated from 1 to 7 dpf (day post-fertilization) with a range of doses of COH29 (0-100 μM) and compared to embryos similarly treated with HU (0-50 mM) which is known to cause developmental defects."}}, "data": [{"smiles": "C[C@]1(c2nc3c(C(N)=O)cccc3[nH]2)CCCN1", "note": "[ABT-888, reference compound]", "values": [{"measurement": "PARP1 protein level", "setting": "[1]", "result": "significant reduction"}]}, {"smiles": "N.N.[Cl][Pt][Cl]", "note": "[Cisplatin]", "values": [{"measurement": "IC50", "setting": "[2]", "result": "7400 ± 2020", "unit": "nM"}, {"measurement": "IC50", "setting": "[3]", "result": "1570 ± 290", "unit": "nM"}, {"measurement": "IC50", "setting": "[4]", "result": "2460 ± 110", "unit": "nM"}, {"measurement": "IC50", "setting": "[5]", "result": "1640 ± 40", "unit": "nM"}, {"measurement": "IC50", "setting": "[6]", "result": "2930 ± 550", "unit": "nM"}, {"measurement": "IC50", "setting": "[7]", "result": "1430 ± 870", "unit": "nM"}, {"measurement": "IC50", "setting": "[8]", "result": "990 ± 240", "unit": "nM"}, {"measurement": "IC50", "setting": "[9]", "result": "7500 ± 300", "unit": "nM"}, {"measurement": "IC50", "setting": "[10]", "result": "2250 ± 250", "unit": "nM"}, {"measurement": "IC50", "setting": "[11]", "result": "1320 ± 200", "unit": "nM"}, {"measurement": "IC50", "setting": "[12]", "result": "380 ± 30", "unit": "nM"}, {"measurement": "IC50", "setting": "[13]", "result": "5020 ± 1180", "unit": "nM"}]}, {"smiles": "NC(=O)NO", "note": "[HU, hydroxyurea, reference compound]", "values": [{"measurement": "number of mutant embryos", "setting": "[14]", "result": "dose-dependent increase"}, {"measurement": "developmental defects", "setting": "[14]; embryos treated 1 to 7 dpf, COH29 0-100 μM", "result": "caused defects in eyes and heart by 4 dpf"}]}]}
